Ki data for one molecule are collected here from article PMC7379272, “Functional analysis of UGT201D3 associated with abamectin resistance in Tetranychus cinnabarinus (Boisduval)” (Insect Science, 2018).

The assay concerns the target T1, (UniProt A0A221C6W1).
T1 construct: gene UGT201D3; recombinant pET-28a-UGT201D3q, 15 N-terminal hydrophobic amino acids removed, expressed in E. coli BL21 (DE3), Ni-NTA purified
The experiment in a line: inhibition of α-naphthol glycosylation by the purified recombinant enzyme, Dixon plot (IC50 […]); HPLC depletion of abamectin. Type of assay: biochemical, Tetranychus cinnabarinus.

T1 sequence (A0A221C6W1 16-460 limits assumed): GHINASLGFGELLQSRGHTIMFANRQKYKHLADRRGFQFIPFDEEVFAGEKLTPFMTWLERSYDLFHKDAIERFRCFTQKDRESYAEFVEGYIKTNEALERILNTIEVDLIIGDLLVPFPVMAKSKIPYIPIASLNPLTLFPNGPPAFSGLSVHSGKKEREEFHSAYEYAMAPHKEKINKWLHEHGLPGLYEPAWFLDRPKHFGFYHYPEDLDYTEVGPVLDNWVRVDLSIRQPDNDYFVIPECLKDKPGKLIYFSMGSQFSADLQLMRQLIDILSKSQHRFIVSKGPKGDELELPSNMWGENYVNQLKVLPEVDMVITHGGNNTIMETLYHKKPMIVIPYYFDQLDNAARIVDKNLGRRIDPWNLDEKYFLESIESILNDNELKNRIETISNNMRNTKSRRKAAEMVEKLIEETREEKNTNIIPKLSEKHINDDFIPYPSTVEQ

Turning to `CC[C@H](C)[C@H]1O[C@]2(C=C[C@@H]1C)C[C@@H]1C[C@@H](C/C=C(\C)[C@@H](O[C@H]3C[C@H](OC)[C@@H](O[C@H]4C[C@H](OC)[C@@H](O)[C@H](C)O4)[C@H](C)O3)[C@@H](C)/C=C/C=C3\CO[C@@H]4[C@H](O)C(C)=C[C@@H](C(=O)O1)[C@]34O)O2.CO[C@H]1C[C@H](O[C@H]2[C@H](C)O[C@@H](O[C@@H]3/C(C)=C/C[C@@H]4C[C@@H](C[C@]5(C=C[C@H](C)[C@@H](C(C)C)O5)O4)OC(=O)[C@@H]4C=C(C)[C@@H](O)[C@H]5OC/C(=C\C=C\[C@@H]3C)[C@]54O)C[C@@H]2OC)O[C@@H](C)[C@@H]1O` [abamectin], the Ki worked out at 9.9 ± 6.2 µM.
